Here are results for two compounds from US20250090514A1, “METHOD OF TREATING CANCER” (Laekna Limited, priority 2019, published 2025).

The structures appear in SMILES notation. Read-outs that look alike come from different tables or passages of the source.

For one data set, the system named is aldosterone synthesis. The data set can be described thus: Example C: aldosterone level and hyperaldosteronism. The class given is in vivo, human. The source says:
Hyperaldosteronism is a disorder with several serious clinical symptoms including hypertension, hypokalemia, fatigue, headache, muscle weakness and numbness.

Data set [1] deals with metastatic castration-resistant prostate cancer (mCRPC) patients. Conditions: cited from earlier work.
The nature of data set [2]: Body weight and tolerability in the Mini-PDX study. The class given is in vivo. How it is done: During the study, the care and use of animals were conducted in accordance with the regulations of the Association for Assessment and Accreditation of Laboratory Animal Care (AAALAC). After Mini-PDX device inoculation, the animals were checked daily for morbidity and mortality. At the time of routine monitoring, the animals were checked for any effects of treatments on normal behavior such as mobility, visual estimation of food and water consumption, body weight gain/loss, eye/hair matting and any other abnormal effect.
The body weight of mice was measured every day, and relative change of bodyweight was calculated for each mouse according to the following formula: RCBW(%)=(BWi−BW0)/BW0×100, BWi is the body weight after treatment on a given day, BW0 is the bodyweight on the first day of treatment.

Turning to `Cc1ccncc1N1CCN(c2ccnc(Cl)c2)C1=O` [CFG920, 1-(2-chloro-pyridin-4-yl)-3-(4-methyl-pyridin-3-yl)-imidazolidin-2-one], the “aldosterone level vs baseline” value in the data set with aldosterone synthesis (baseline to Day 1 of Cycle 3, except Day 1 of Cycle 2 (similar to baseline), combination therapy) is “lower than the baseline level”. Also, in the data set with aldosterone synthesis (during treatment with the combination therapy), the “clinical symptoms of hyperaldosteronism” value was “did not cause any clinical symptoms of hyperaldosteronism”. For the same compound, the “unconfirmed rate of ≥50% PSA decline from baseline” value is listed as 26% in data set [1] (chemotherapy-naive mCRPC patients (32 of 124)) and 28% in data set [1] (mCRPC patients with previous chemotherapy (16 of 57)).
As for `Cn1ncc(Cl)c1-c1cc(C(=O)N[C@H](CN)Cc2cccc(F)c2)sc1Cl` [afuresertib, N-{(1S)-2-amino-1-[(3-fluorophenyl)methyl]ethyl}-5-chloro-4-(4-chloro-1-methyl-1H-pyrazol-5-yl)-2-thiophenecarboxamide], the “tolerability in the animals” value in data set [2] (afuresertib 75 mg/kg, CFG920 300 mg/kg) was “tolerated well”. Further, in data set [2] (relative change of body weight from day 0, afuresertib 75 mg/kg QD, CFG920 300 mg/kg BID), the “Average RCBW (%)/Day 6” value is given as −8.73%.
